Laboratory results published in patent US20080167330A1, “Carbamoylsulphoximides as protein kinase inhibitors” (priority 2006, published 2008).

Legend:
Type in all cases: biochemical
human Aurora-C = target: T1, human Aurora-C (Homo sapiens, UniProt Q9UQB9); test: Aurora-C kinase assay (HTRF); conditions: 10 μM ATP
T1 construct: GST; made in house; host or cells: transiently transfected HEK293 cells
T1 sequence (Q9UQB9 1-309): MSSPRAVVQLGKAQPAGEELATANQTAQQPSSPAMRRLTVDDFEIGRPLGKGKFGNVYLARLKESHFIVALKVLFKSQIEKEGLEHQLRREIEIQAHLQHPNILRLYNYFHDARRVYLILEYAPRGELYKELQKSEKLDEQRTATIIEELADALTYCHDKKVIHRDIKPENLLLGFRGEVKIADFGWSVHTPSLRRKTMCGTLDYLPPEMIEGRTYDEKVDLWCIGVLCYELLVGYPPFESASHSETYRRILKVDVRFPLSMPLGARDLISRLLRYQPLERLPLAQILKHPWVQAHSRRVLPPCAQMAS
Experimental: The Aurora-C inhibitory activity of the substances of this invention was measured in the Aurora-C-HTRF assay (HTRF=Homogeneous Time Resolved Fluorescence) described in the following paragraphs.
Recombinant fusion protein of GST and human Aurora-C was expressed in transiently transfected HEK293 cells and purified by affinity chromatography on glutathione-Sepharose. The substrate used for the kinase reaction was the biotinylated peptide biotin-Ttds-FMRLRRLSTKYRT (C terminus in amide form) which can be purchased for example from JERINI Peptide Technologies (Berlin). Aurora-C was incubated in the presence of various concentrations of test substances in 5 μL of assay buffer [25 mM Hepes/NaOH pH 7.4, 0.5 mM MnCl2, 2.0 mM dithiothreitol, 0.1 mM sodium orthovanadate, 10 μM adenosine triphosphate (ATP), […] substrate, 0.01% (v/v) TritonX-100 (Sigma), 0.05% (w/v) bovine serum albumin (BSA), 1% (v/v) dimethyl sulphoxide] at 22° C. for 60 min. The concentration of Aurora-C was adapted to the particular activity of the enzyme and adjusted so that the assay operated in the linear range. Typical concentrations were in the region of 0.3 nM. The reaction was stopped by adding 5 μl of a solution of HTRF detection reagents (0.2 μM streptavidin-XLent and 1.4 nM anti-phospho-(Ser/Thr)-Akt substrate-Eu-cryptate (Cis biointernational, France, product No. 61P02KAE), a Europium-cryptate-labelled phospho-(Ser/Thr)-Akt substrate antibody [product #9611B, Cell Signaling Technology, Danvers, Mass., USA]) in aqueous EDTA solution (40 mM EDTA, 400 mM KF, 0.05% (w/v) bovine serum albumin (BSA) in 25 mM HEPES/NaOH pH 7.0).
The resulting mixture was incubated at 22° C. for 1 h in order to allow formation of a complex of the biotinylated phosphorylated substrate and the detection reagents. The amount of phosphorylated substrate was then estimated by measuring the resonance energy transfer from the anti-phospho-(Ser/Thr)-Akt substrate-Eu cryptate to the streptavidin-XLent. For this purpose, the fluorescence emissions at 620 nm and 665 nm after excitation at 350 nm were measured in an HTRF measuring instrument, e.g. a Rubystar (BMG Labtechnologies, Offenburg, Germany) or a Viewlux (Perkin-Elmer). The ratio of the emissions at 665 nm and at 622 nm was taken as a measure of the amount of phosphorylated substrate. The data were normalized (enzymic reaction without inhibitor=0% inhibition, all other assay components but no enzyme=100% inhibition) and IC50 values were calculated with a 4-parameter fit using an inhouse software.

KDR (VEGFR2) = target: T2, KDR (VEGFR2) (Homo sapiens, UniProt P35968); test: KDR kinase assay; conditions: 8 μM ATP
T2 construct: GST; purchased ProQinase GmbH, Freiburg; host or cells: baculovirus-infected insect cells (Sf9)
T2 sequence (P35968 807-1356 limits assumed): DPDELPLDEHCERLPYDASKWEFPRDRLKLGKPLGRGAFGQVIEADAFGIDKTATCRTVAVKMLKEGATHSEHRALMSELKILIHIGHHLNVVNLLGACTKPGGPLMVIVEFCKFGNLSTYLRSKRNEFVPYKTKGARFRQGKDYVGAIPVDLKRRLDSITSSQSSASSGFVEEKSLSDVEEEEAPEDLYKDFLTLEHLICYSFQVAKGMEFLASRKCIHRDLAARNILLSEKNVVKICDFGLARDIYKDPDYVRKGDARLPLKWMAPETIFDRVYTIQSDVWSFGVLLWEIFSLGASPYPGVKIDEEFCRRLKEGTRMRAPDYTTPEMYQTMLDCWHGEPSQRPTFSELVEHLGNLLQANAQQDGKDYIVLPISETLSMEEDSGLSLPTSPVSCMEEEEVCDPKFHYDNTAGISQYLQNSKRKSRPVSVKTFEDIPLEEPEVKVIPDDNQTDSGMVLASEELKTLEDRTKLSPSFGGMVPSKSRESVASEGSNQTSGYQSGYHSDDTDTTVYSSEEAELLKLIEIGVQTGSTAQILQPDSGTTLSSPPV
Experimental: Recombinant KDR kinase-GST fusion proteins purified from baculovirus-infected insect cells (Sf9), were purchased from ProQinase GmbH, Freiburg. Poly(Glu4Tyr)n, which was used as kinase substrate, was purchased from Sigma.
KDR kinase was incubated in the presence of various concentrations of test substances (0 μM, and within the range 0.01-100 μM) in 40 μL of assay buffer [40 mM Tris/HCl pH 7.5, 10 mM MgCl2, 1 mM MnCl2, 1.0 mM dithiothreitol, 8 μM ATP, 0.025% PEG20000, 24 ng/μL poly(Glu4Tyr)n, 0.2 μCi/measurement point ^33P-gamma ATP, 1.25% dimethyl sulphoxide] at 22° C. for 10 min. The reaction was stopped by adding EDTA solution (250 mM, pH 7.5, 15 μl/measurement point). 15 μl of each reaction mixture were loaded onto P30 filter strips (from Wallac), and non-incorporated ^33P-ATP was removed by washing the filter strips three times in 0.5% strength phosphoric acid for 10 min each time.
After the filter strips had been dried at 70° C. for 1 hour, the filter strips were covered with scintillator strips (MeltiLex™ A, from Wallac) and baked at 90° C. for 1 hour. The amount of incorporated ^33P (substrate phosphorylation) was determined by scintillation measurement in a gamma radiation counter (Wallac).
(§1) The measured data were normalized to 0% inhibition (enzyme reaction without inhibitor) and 100% inhibition (all assay components except enzyme). The IC50 values were determined by means of a 4-parameter fit using the company's own software.

CDK1/CycB = target: T3, CDK1/CycB (Homo sapiens, UniProt P06493); test: CDK1/CycB kinase assay; conditions: 0.5 μM ATP
T3 construct: GST; purchased ProQinase GmbH, Freiburg; host or cells: baculovirus-infected insect cells (Sf9)
T3 sequence (P06493 whole entry): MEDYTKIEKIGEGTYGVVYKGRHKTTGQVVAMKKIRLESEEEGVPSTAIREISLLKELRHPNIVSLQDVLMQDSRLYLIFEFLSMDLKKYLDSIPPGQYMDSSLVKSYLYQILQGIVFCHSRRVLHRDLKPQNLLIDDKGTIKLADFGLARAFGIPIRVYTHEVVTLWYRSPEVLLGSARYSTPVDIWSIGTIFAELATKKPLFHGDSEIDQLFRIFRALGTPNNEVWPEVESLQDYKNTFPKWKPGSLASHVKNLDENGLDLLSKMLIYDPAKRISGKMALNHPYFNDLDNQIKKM
T3 sequence (P14635 whole entry partner): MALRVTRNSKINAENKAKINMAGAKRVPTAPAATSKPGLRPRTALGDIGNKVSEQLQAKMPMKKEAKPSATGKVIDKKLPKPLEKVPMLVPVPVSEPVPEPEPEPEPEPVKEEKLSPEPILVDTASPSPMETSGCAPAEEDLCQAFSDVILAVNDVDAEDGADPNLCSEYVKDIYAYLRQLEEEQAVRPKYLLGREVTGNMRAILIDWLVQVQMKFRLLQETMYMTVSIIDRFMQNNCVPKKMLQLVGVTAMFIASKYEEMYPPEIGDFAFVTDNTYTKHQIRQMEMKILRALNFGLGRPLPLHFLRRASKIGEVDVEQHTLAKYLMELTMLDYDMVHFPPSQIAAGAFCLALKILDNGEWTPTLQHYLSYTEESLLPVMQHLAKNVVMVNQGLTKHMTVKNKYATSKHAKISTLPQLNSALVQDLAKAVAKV
Experimental: Recombinant CDK1- and CycB-GST fusion proteins, purified from baculovirus-infected insect cells (Sf9), were purchased from ProQinase GmbH, Freiburg. The histone IIIS used as kinase substrate can be purchased from Sigma.
CDK1/CycB (5 ng/μL) was incubated in the presence of various concentrations of test substances (0 μM, and within the range 0.01-100 μM) in 40 μL of assay buffer [50 mM Tris/HCl pH 8.0, 10 mM MgCl2, 0.1 mM Na ortho-vanadate, 1.0 mM dithiothreitol, 0.025% PEG 20000, 0.5 μM ATP, 10 μM histone IIIS, 0.2 μCi/measurement point ^33P-gamma ATP, 0.05% NP40, 1.25% dimethyl sulphoxide] at 22° C. for 10 min. The reaction was stopped by adding EDTA solution (250 mM, pH 8.0, 15 μl/measurement point). 15 μl of each reaction mixture were loaded onto P30 filter strips (from Wallac), and non-incorporated ^33P-ATP was removed by washing the filter strips three times in 0.5% strength phosphoric acid for 10 min each time. After the filter strips had been dried at 70° C. for 1 hour, the filter strips were covered with scintillator strips (MeltiLex™ A, from Wallac) and baked at 90° C. for 1 hour. The amount of incorporated ^33P (substrate phosphorylation) was determined by scintillation measurement in a gamma radiation counter (Wallac).
as §1

IC50 (human Aurora-C): 2000 nM | IC50 (KDR (VEGFR2)): 330 nM | IC50 (CDK1/CycB): 10 nM
Structure (SMILES): C[C@@H](O)[C@@H](C)Nc1nc(Nc2cccc(C(=O)N=S(C)(C)=O)c2)ncc1Br [Example 17, N-{3-[(5-Bromo-4-{[(1R,2R)-2-hydroxy-1-methylpropyl]amino}pyrimidin-2-yl)amino]benzoyl}-S,S-dimethylsulphoximide]
